Results: US7049311B1, “Pyrrolbenzodiazepines” (Spirogen Limited, priority 1998, dated 2006)
Read-outs that look alike come from different tables or passages of the source.

What was measured:
[1] = tested on: LOX IMVI; experiment: NCI in vitro cytotoxicity screen; type: cell-based; conditions: Homo sapiens, 48 h, read-out: LC50
Protocol: (§1) The National Cancer Institute (NCI), Bethesda, Md., USA has available an in vitro cytotoxicity screen which consists of approximately 60 human tumour cell lines against which compounds are tested at a minimum of five concentrations each differing 10-fold. A 48 hour continuous exposure protocol is used, where cell viability or growth is estimated with an SRB protein assay.
(§2) The test compounds were evaluated against approximately 60 human tumour cell lines. The NCI screening procedures were described in detail by Monks and co-workers (Monks, A et al., Journal of the National Cancer Institute, 1991, 83, 757). Briefly, cell suspensions were diluted according to the particular cell type and the expected target cell density (5000-40,000 cells per well based on cell growth characteristics), and added by pipette (100 μL) into 96-well microtitre plates. The cells were allowed a preincubation period of 24 hours at 37° C. for stabilisation. Dilutions at twice the intended test concentration were added at time zero in 100 μL aliquots to the wells. The test compounds were evaluated at five 10-fold dilutions (10^−4, 10^−5, 10^−6, 10^−7 and 10^−[…]). The test compounds were incubated for 48 hours in 5% CO2 atmosphere and 100% humidity. The cells were then assayed using the sulphorhodamine B assay. A plate reader was used to read the optical densities and a microcomputer processed the readings into LC50 values, which is the dosage required to kill half of the cells.

[2] = tested on: M14; experiment: NCI in vitro cytotoxicity screen; type: cell-based; conditions: Homo sapiens, M14, 48 h, read-out: LC50
Protocol: as §1, §2

[3] = tested on: MALME-3M; experiment: NCI in vitro cytotoxicity screen; type: cell-based; conditions: Homo sapiens, Malme-3M, 48 h, read-out: LC50
Protocol: as §1, §2

[4] = tested on: MDA-MB-435; experiment: NCI in vitro cytotoxicity screen; type: cell-based; conditions: Homo sapiens, MDA-MB-435, 48 h, read-out: LC50
Protocol: as §1, §2

[5] = tested on: MDA-N; experiment: NCI in vitro cytotoxicity screen; type: cell-based; conditions: Homo sapiens, 48 h, read-out: LC50
Protocol: as §1, §2

[6] = tested on: NCI-H522; experiment: NCI in vitro cytotoxicity screen; type: cell-based; conditions: Homo sapiens, NCI-H522, 48 h, read-out: LC50
Protocol: as §1, §2

[7] = tested on: RXF 393; experiment: NCI in vitro cytotoxicity screen; type: cell-based; conditions: Homo sapiens, RXF 393, 48 h, read-out: LC50
Protocol: as §1, §2

[8] = tested on: SK-MEL-28; experiment: NCI in vitro cytotoxicity screen; type: cell-based; conditions: Homo sapiens, SK-MEL-28, 48 h, read-out: LC50
Protocol: as §1, §2

[9] = tested on: SK-MEL-2; experiment: NCI in vitro cytotoxicity screen; type: cell-based; conditions: Homo sapiens, SK-MEL-2, 48 h, read-out: LC50
Protocol: as §1, §2

[10] = tested on: A2780cisR; experiment: Ovarian carcinoma cytotoxicity assay; type: cell-based, human; conditions: Homo sapiens, A2780cisR
Protocol: (§3) Compounds of the invention (and Anthramycin as a comparison) were evaluated for their cytotoxic activity in ovarian cell lines by Dr Lloyd R. Kelland's group at The Institute of Cancer Research, Sutton, UK. The five cell lines investigated were SKOV-3, A2780/A2780cisR and CH1/CH1cisR (cis R denotes that the cell line is resistant to cisplatin).
(§4) Single viable cells were seeded in growth medium (160 μL) in […] microtitre plates and allowed to attach overnight. […] After 96 hours, the medium was removed and the remaining cells fixed by exposure to 10% trichloroacetic acid on ice for 30 minutes. The wells were then washed 3-4 times with tap water, air dried overnight and treated with 100 μL of sulphorhodamine B (0.4%) dissolved in 1% acetic acid. Staining was allowed to continue for 10-15 minutes, then the wells were washed 3-4 times with 1% acetic acid, air dried and then added to Tris base (100 μL of 10 mM). Plates were then shaken and absorbance readings at 540 nm were determined using a plate reader. By using the Quattro-Pro software package, the IC50 values were calculated from plots of concentration versus percentage absorbance (compared with 8 untreated wells).

[11] = tested on: A2780; experiment: Ovarian carcinoma cytotoxicity assay; type: cell-based, human; conditions: Homo sapiens
Protocol: as §3, §4

[12] = tested on: CH1cisR; experiment: Ovarian carcinoma cytotoxicity assay; type: cell-based; conditions: Homo sapiens, CH1cisR
Protocol: as §3, §4

[13] = tested on: CH1; experiment: Ovarian carcinoma cytotoxicity assay; type: cell-based; conditions: Homo sapiens
Protocol: as §3, §4

[14] = tested on: SKOV-3; experiment: Ovarian carcinoma cytotoxicity assay; type: cell-based; conditions: Homo sapiens
Protocol: as §3, §4

[15] = tested on: COLO 205; experiment: NCI in vitro cytotoxicity screen; type: cell-based; conditions: Homo sapiens, COLO 205, 48 h, read-out: LC50
Protocol: as §1, §2

[16] = tested on: HCC-2998; experiment: NCI in vitro cytotoxicity screen; type: cell-based; conditions: Homo sapiens, HCC 2998, 48 h, read-out: LC50
Protocol: as §1, §2

[17] = tested on: NCI-H23; experiment: NCI in vitro cytotoxicity screen; type: cell-based; conditions: Homo sapiens, NCI-H23, 48 h, read-out: LC50
Protocol: as §1, §2

[18] = tested on: SK-MEL-5; experiment: NCI in vitro cytotoxicity screen; type: cell-based; conditions: Homo sapiens, SK-MEL-5, 48 h, read-out: LC50
Protocol: as §1, §2

[19] = tested on: UACC-257; experiment: NCI in vitro cytotoxicity screen; type: cell-based; conditions: Homo sapiens, UACC-257, 48 h, read-out: LC50
Protocol: as §1, §2

[20] = tested on: UACC-62; experiment: NCI in vitro cytotoxicity screen; type: cell-based; conditions: Homo sapiens, UACC-62, 48 h, read-out: LC50
Protocol: as §1, §2

[21] = tested on: human tumour cells cultivated in hollow fibres implanted in mice; experiment: NCI Hollow Fibre Assay; type: in vivo
Text: The Biological testing Branch of the Developmental Therapeutics Program of the NCI has adopted a preliminary in vivo screening tool for assessing the potential anticancer activity of compounds identified by the large scale in vitro cell screen. For these assays, human tumour cells are cultivated in polyvinylidene (PVDF) hollow fibres, and a sample of each cell line is implanted into each of two physiologic compartments (intraperitoneal and subcutaneaous) in mice. Each test mouse received a total of 6 fibres (3 intraperitoneally and 3 subcutaneously) representing 3 distinct cancer cell lines. These mice are treated with potential antitumour compounds at each of 2 test doses by the intraperitoneal route using a QD×4 treatment schedule. Vehicle controls consist of 6 mice receiving the compound diluent only. The fibre cultures are collected on the day following the last day of treatment. To assess anticancer effects, the viable cell mass is determined for each of the cell lines using a formazyn dye (MTT) conversion assay. From this, the % T/C can be calculated using the average optical density of compound treated samples divided by the average optical; density of the vehicle controls. In addition, the net increase in cell mass can be determined for each sample, as a sample of fibre cultures are assessed for viable cell mass on the day of implantation into mice. Thus, the cytostatic and cytocidal capacities of the test compound can be assessed.
Generally, each compound is tested against a minimum of 12 human cancer cell lines. This represents a total of 4 experiments since each experiment contains 3 cell lines. The data are reported as % T/C for each of the 2 compound doses against each of the cell lines with separate values calculated for the intraperitoneal and subcutaneous samples.
Compounds are selected for further in vivo testing in standard subcutaneous xenograft models on the basis of several hollow fibre assay criteria. These include: (1) a % T/C of 50 or less in 10 of the 48 possible test combinations (12 cell lines×2 sites×2 Compound doses); (2) activity at a distance (intraperitoneal drug/subcutaneous culture) in a minimum of 4 of the 24 possible combinations; and/or (3) a net cell kill of 1 or more of the cell lines in either implant site. To simplify evaluation, a points system has been adopted which allows rapid evaluation of the activity of a given compound. For this, a value of 2 is assigned for each compound dose which results in a 50% or greater reduction in viable cell mass. The intraperitoneal and subcutaneous samples are scored separately so that criteria (1) and (2) can be evaluated. Compounds with a combined IP+SC score of 20, a SC score of 8 or a net cell kill of one or more cell lines are referred for xenograft testing. […] In addition to these criteria, other factors (e.g. unique structure, mechanism of action) may result in referral of a compound for xenograft testing without the compound meeting these criteria.

[22] = tested on: approximately 60 human tumour cell lines; experiment: NCI in vitro cytotoxicity screen, whole panel; type: cell-based; conditions: CNS panel
Protocol: as §1
as §2, with “The test compounds were incubated for 48 hours in 5% CO2 atmosphere and 100% humidity. The cells were then assayed using the sulphorhodamine B assay.” left out

[23] = tested on: 786-0; experiment: NCI in vitro cytotoxicity screen; type: cell-based; conditions: Homo sapiens, 786-0, 48 h, read-out: LC50
Protocol: as §1, §2

[24] = tested on: HCT-116; experiment: NCI in vitro cytotoxicity screen; type: cell-based; conditions: Homo sapiens, HCT-116, 48 h, read-out: LC50
Protocol: as §1, §2

[25] = tested on: NCI-H460; experiment: NCI in vitro cytotoxicity screen; type: cell-based; conditions: Homo sapiens, NCI-H460, 48 h, read-out: LC50
Protocol: as §1, §2

[26] = cisplatin-resistant, 96 hours, sulphorhodamine B, read-out: IC50 A2780cisR
[27] = A2780, 96 hours, sulphorhodamine B, read-out: IC50 A2780
[28] = cisplatin-resistant, 96 hours, sulphorhodamine B, read-out: IC50 CH1cisR
[29] = CH1, 96 hours, sulphorhodamine B, read-out: IC50 CH1
[30] = SK-OV-3, 96 hours, sulphorhodamine B, read-out: IC50 Skov3
[31] = 96 h, read-out: IC50 A2780cisR, cisplatin-resistant, 96 hours, sulphorhodamine B
[32] = CH1, 96 h, read-out: IC50 CH1, 96 hours, sulphorhodamine B

Row | Structure (SMILES) | CC50 [2] [µM] | CC50 [3] [µM] | CC50 [4] [µM] | CC50 [5] [µM] | CC50 [6] [µM] | CC50 [7] [µM] | CC50 [8] [µM] | CC50 [9] [µM] | IC50 [10, 26] [µM] | IC50 [11, 27] [µM] | IC50 [12, 28] [µM] | IC50 [13, 29] [µM] | IC50 [14, 30] [µM] | CC50 [15] [µM] | CC50 [16] [µM] | CC50 [17] [µM] | CC50 [18] [µM] | CC50 [19] [µM] | CC50 [20] [µM] | IC50 [10, 31] [µM] | also measured
1 | COc1ccc2c(c1)C(=O)N1CCC[C@H]1C=N2 (stereo in doubt) [UP2068 (96), 7-methoxy-1,2,3,11a-tetrahydro-5H-pyrrolo[2,1-c][1,4]benzodiazepin-5-one] | 6.5 | 8.3 | 8.3 | 6.3 | 8.5 | 6.3 | 9.6 | 8.1 | 0.66 | 0.47 | 0.42 | 0.52 | 0.76 |  |  |  |  |  |  |  | CC50 [1]: 9.7 µM
2 | C=C1C[C@H]2C=Nc3cc(OCc4ccccc4)c(OC)cc3C(=O)N2C1 [UP2004 (70), (11aS)-8-Benzyloxy-7-methoxy-2-methylidene-1,2,3,11a-tetrahydro-5H-pyrrolo[2,1-c][1,4]benzodiazepin-5-one] |  |  |  | 9 |  |  |  |  | 0.2 | 0.029 | 0.082 | 0.017 | 0.35 | 3.9 | 5.5 | 7.6 | 7.8 | 7.3 | 5.3 |  | Total score ([21]; combined IP+SC score): 18; IP score ([21]; intraperitoneal fibres, 2 points per dose giving 50% or greater reduction in viable cell mass): 8; SC score ([21]; subcutaneous fibres, 2 points per dose giving 50% or greater reduction in viable cell mass): 10
3 | O=C1c2cc(-c3ccccc3)ccc2N=C[C@@H]2CCCN12 [UP2026 (136), (11aS)-7-Phenyl-1,2,3,11a-tetrahydro-5H-pyrrolo[2,1-c][1,4]benzodiazepin-5-one] | 7.8 | 6.1 | 6.3 |  | 7.8 | 7.6 | 7.1 | 7.4 | 3.7 | 1.15 | 1.45 | 1.5 | 4.9 | 8.8 | 6.4 |  | 9 | 7.7 | 6.6 |  | cytotoxicity in the CNS cell line panel [22]: inactive
4 | COc1cc2c(cc1OCc1ccccc1)N=C[C@@H]1CC(CCOC(C)=O)=CN1C2=O [UP2051 (31), (11aS)-2-(Acyloxy-2-ethyl)-8-benzyloxy-7-methoxy-1,2,3,11a-tetrahydro-5H-pyrrolo[2,1-c][1,4]benzodiazepin-5-one] |  | 5.1 |  |  |  | 0.8 |  | 7.6 |  |  |  |  |  |  | 5.2 | 9.3 |  |  |  | 0.27 | IC50 ([11]; A2780, 96 h, read-out: IC50 A2780, 96 hours, sulphorhodamine B): 0.1 µM; IC50 ([12]; 96 h, read-out: IC50 CH1cisR, cisplatin-resistant, 96 hours, sulphorhodamine B): 0.16 µM; IC50 [13, 32]: 0.105 µM; IC50 ([14]; SK-OV-3, 96 h, read-out: IC50 Skov3, 96 hours, sulphorhodamine B): 0.46 µM
5 | COc1cc2c(cc1OCc1ccccc1)N=C[C@@H]1CC(CCO)=CN1C2=O [UP2052 (33)] | 2.7 |  |  |  | 3.1 |  |  | 0.5 |  | 0.07 | 0.037 |  | 0.105 |  | 0.8 |  |  |  |  | 0.105 | CC50 [23]: 3 µM; CC50 [24]: 1.1 µM; CC50 [25]: 3 µM; IC50 [13, 32]: 0.09 µM
